Assay results taken from US11135143B2, “Oral care compositions comprising tin ions” (The Procter & Gamble Company, priority 2020, dated 2021).

Assays:
[1] = Solubility of tin ions (SnF2) in polyol solutions at various pH; type: physicochemical; conditions: for Appearance of polyol solution with stannous fluoride: every point above pH of 4; for Appearance of polyol solution with SnF2 (cloudy = formation of Sn(OH)2): pH 8-10, pH raised with NaOH
Description: Solubility of Tin Ions at a pH of Greater than 7
A 30% (w/w) solution was prepared for each polyol or combination of polyols was prepared using the appropriate amount of the pure polyol and deionized water. Next, 46 g of the 30% (w/w) polyol solution was placed in a 250 mL glass beaker with a stirring bar on top of a magnetic stirring apparatus. 21 g of deionized water was added to the glass beaker and the magnetic stirring apparatus was started to commence stirring of the solution. A pH electrode was connected to a pH meter (VWR Scientific, Model 9100, Radnor, Pa.) and the pH electrode (ThermoFisher Scientific, Orion 8165BNWP, Waltham, Mass.) was placed in the stirring polyol solution.
0.45 grams of a tin ion source, such as stannous fluoride, was added to the stirring polyol solution. The pH was recorded once the tin ion source was completely added. The pH of the solution was increased by dropwise addition of a 33% (w/w) solution of NaOH.
Solubility of Tin Ions at a pH of Less than 7
0.45 grams of a tin ion source, such as stannous fluoride, was added to the stirring polyol solution. The pH was recorded once the tin ion source was completely added. The pH of the solution was decreased by dropwise addition of a 33% (w/w) solution of HCl.
A solution that appeared cloudy indicated the formation of insoluble tin complexes. At a pH of greater than 7, a cloudy solution indicated the formation of Sn(OH)2. FIG. 1-6 illustrate TABLE 1 by showing the appearance of each solution described in TABLE 1.

[2] = tested on: Human gingival epithelial (HGE) cell; assay: Barrier protection analysis by real time cell analyzer (RTCA), impedance / Cell Index; type: cell-based; conditions: HGE cells
Description: Cell Culture Human gingival epithelial (HGE) cell was maintained in a 37° C. incubator with 5% CO2 saturation. Dulbecco's modified Eagle's medium (DMEM, Gibco) containing 10% fetal calf serum, 1% penicillin-streptomycin was used as the complete culture medium, which was changed every 2-3 days. Barrier Protection Analysis by Real Time Cell Analyzer (RTCA) The real time cell analyzer (RTCA) xCELLigence RTCA DP (ACEA Bioscience Inc., San Diego, Calif.) equipment, based on impedance measurement, was used to monitor the barrier protection of polyols. 50 μl complete culture medium was added to E-plates to obtain background readings, followed by the addition of 100 μl of the cell suspension. The E-plates containing 28000 cell/well were incubated at 37° C., 5% CO2 for 22-24 h until cells were confluent. The culture medium was changed to DMEM or DMEM with 1% of polyols, non reducing sugars or combinations and incubated at 37° C., 5% CO2 for 2 h. The barrier disruptor (capsaicin to a final concentration of 75 μM in this case) was added to wells of E-plate. Impedance as reflected by the Cell Index (CI) was recorded continuously for 16-24 h. The CI curve was normalized at the time point just before adding polyols. The normalized CI at 3 h after adding of barrier disruptor was compared to blank control to generate the percentage of barrier function % comprimisation.

[3] = pH 2-4, 30% (w/w) polyol solution diluted with water, 0.45 g stannous fluoride, pH lowered with HCl
[4] = DMEM with 1% polyol(s) for 2 h, then capsaicin 75 μM, normalized CI at 3 h after barrier disruptor compared to blank control (100%)

| Compound | Appearance of polyol solution with stannous fluoride [1] | Appearance of polyol solution with SnF2 (cloudy = formation of insoluble tin complexes) [1, 3] | Appearance of polyol solution with SnF2 (cloudy = formation of insoluble tin complexes) ([1]; pH 4-6) | Appearance of polyol solution with SnF2 (cloudy = formation of insoluble tin complexes) ([1]; pH 6-8) | Appearance of polyol solution with SnF2 (cloudy = formation of Sn(OH)2) [1] | Barrier Function [2, 4] | Barrier Function ([2]; DMEM with 1% polyol(s) for 2 h, then capsaicin 75 μM, normalized CI at 3 h after barrier disruptor compared to blank control (100%), listed as glycerin) | Barrier Function ([2]; DMEM with 1% polyol(s) for 2 h, then capsaicin 75 μM, normalized CI at 3 h after barrier disruptor compared to blank control (100%), listed as sorbitol) | Barrier Function ([2]; barrier disruptor capsaicin 75 μM alone, no polyol, normalized CI at 3 h compared to blank control (100%)) | Barrier Function ([2]; barrier disruptor capsaicin 75 μM alone, no polyol, normalized CI at 3 h compared to blank control (100%), listed as capsaicin) |
| --- | --- | --- | --- | --- | --- | --- | --- | --- | --- | --- |
| OCC(O)CO [Glycerin, reference compound] | – | – | – | – | – | 44% | 44% | – | – | – |
| OC[C@@H](O)[C@@H](O)[C@H](O)[C@@H](O)CO [Sorbitol] | – | clear | cloudy | cloudy | clear | 46% | – | 46% | – | – |
| COc1cc(CNC(=O)CCCC/C=C/C(C)C)ccc1O [Capsaicin, capsaicin, reference compound] | – | – | – | – | – | – | – | – | 28% | 28% |

Continued, in another order:

| Appearance of polyol solution with stannous fluoride [1] | Appearance of polyol solution with SnF2 (cloudy = formation of insoluble tin complexes) [1, 3] | Appearance of polyol solution with SnF2 (cloudy = formation of insoluble tin complexes) ([1]; pH 4-6) | Appearance of polyol solution with SnF2 (cloudy = formation of insoluble tin complexes) ([1]; pH 6-8) | Appearance of polyol solution with SnF2 (cloudy = formation of Sn(OH)2) [1] | Compound | Barrier Function [2, 4] | Barrier Function ([2]; DMEM with 1% polyol(s) for 2 h, then capsaicin 75 μM, normalized CI at 3 h after barrier disruptor compared to blank control (100%), listed as glycerin) | Barrier Function ([2]; DMEM with 1% polyol(s) for 2 h, then capsaicin 75 μM, normalized CI at 3 h after barrier disruptor compared to blank control (100%), listed as sorbitol) | Barrier Function ([2]; barrier disruptor capsaicin 75 μM alone, no polyol, normalized CI at 3 h compared to blank control (100%)) | Barrier Function ([2]; barrier disruptor capsaicin 75 μM alone, no polyol, normalized CI at 3 h compared to blank control (100%), listed as capsaicin) |
| --- | --- | --- | --- | --- | --- | --- | --- | --- | --- | --- |
| cloudy | clear | cloudy | cloudy | cloudy | OC[C@H]1O[C@H](O[C@H]2O[C@H](CO)[C@@H](O)[C@H](O)[C@H]2O)[C@H](O)[C@@H](O)[C@@H]1O [Trehalose] | 102% | – | – | – | – |
| cloudy | clear | cloudy | cloudy | cloudy | Isomalt | 85% | – | – | – | – |
